As usually defined, the inhibition is the change of the read-out against control, counted positive when it falls.

The source made the active and inactive calls. The calls are words filed in the database; no cut-off is given here. Bounds are passed on as bounds.

Data set [1] has as its target Voltage-dependent T-type calcium channel subunit alpha-1H (Homo sapiens) (UniProt O95180). Kind of data set: Inhibition of human Cav3.2 alpha1 expressed in human tsA-201 cells assessed as tonic block at 10 uM at holding potential of -110 mV by whole cell patch clamp method. Type of data set: cell-based. On the technique in general: Patch clamp records ionic current or voltage across a cell membrane.

In data set [2] the target is Cav1.2 (voltage-dependent L-type calcium channel subunit alpha-1C) (Rattus norvegicus, UniProt P22002). Kind of data set: Inhibition of rat Cav1.2 expressed in human tsA-201 cells co-expressing Cavbeta1b/Cavalpha2delta1 assessed as tonic block at 10 uM at holding potential of -90 mV by whole cell patch clamp method relative to control. In kind it is cell-based.
Sequence of Cav1.2 (voltage-dependent L-type calcium channel subunit alpha-1C) (P22002 whole entry): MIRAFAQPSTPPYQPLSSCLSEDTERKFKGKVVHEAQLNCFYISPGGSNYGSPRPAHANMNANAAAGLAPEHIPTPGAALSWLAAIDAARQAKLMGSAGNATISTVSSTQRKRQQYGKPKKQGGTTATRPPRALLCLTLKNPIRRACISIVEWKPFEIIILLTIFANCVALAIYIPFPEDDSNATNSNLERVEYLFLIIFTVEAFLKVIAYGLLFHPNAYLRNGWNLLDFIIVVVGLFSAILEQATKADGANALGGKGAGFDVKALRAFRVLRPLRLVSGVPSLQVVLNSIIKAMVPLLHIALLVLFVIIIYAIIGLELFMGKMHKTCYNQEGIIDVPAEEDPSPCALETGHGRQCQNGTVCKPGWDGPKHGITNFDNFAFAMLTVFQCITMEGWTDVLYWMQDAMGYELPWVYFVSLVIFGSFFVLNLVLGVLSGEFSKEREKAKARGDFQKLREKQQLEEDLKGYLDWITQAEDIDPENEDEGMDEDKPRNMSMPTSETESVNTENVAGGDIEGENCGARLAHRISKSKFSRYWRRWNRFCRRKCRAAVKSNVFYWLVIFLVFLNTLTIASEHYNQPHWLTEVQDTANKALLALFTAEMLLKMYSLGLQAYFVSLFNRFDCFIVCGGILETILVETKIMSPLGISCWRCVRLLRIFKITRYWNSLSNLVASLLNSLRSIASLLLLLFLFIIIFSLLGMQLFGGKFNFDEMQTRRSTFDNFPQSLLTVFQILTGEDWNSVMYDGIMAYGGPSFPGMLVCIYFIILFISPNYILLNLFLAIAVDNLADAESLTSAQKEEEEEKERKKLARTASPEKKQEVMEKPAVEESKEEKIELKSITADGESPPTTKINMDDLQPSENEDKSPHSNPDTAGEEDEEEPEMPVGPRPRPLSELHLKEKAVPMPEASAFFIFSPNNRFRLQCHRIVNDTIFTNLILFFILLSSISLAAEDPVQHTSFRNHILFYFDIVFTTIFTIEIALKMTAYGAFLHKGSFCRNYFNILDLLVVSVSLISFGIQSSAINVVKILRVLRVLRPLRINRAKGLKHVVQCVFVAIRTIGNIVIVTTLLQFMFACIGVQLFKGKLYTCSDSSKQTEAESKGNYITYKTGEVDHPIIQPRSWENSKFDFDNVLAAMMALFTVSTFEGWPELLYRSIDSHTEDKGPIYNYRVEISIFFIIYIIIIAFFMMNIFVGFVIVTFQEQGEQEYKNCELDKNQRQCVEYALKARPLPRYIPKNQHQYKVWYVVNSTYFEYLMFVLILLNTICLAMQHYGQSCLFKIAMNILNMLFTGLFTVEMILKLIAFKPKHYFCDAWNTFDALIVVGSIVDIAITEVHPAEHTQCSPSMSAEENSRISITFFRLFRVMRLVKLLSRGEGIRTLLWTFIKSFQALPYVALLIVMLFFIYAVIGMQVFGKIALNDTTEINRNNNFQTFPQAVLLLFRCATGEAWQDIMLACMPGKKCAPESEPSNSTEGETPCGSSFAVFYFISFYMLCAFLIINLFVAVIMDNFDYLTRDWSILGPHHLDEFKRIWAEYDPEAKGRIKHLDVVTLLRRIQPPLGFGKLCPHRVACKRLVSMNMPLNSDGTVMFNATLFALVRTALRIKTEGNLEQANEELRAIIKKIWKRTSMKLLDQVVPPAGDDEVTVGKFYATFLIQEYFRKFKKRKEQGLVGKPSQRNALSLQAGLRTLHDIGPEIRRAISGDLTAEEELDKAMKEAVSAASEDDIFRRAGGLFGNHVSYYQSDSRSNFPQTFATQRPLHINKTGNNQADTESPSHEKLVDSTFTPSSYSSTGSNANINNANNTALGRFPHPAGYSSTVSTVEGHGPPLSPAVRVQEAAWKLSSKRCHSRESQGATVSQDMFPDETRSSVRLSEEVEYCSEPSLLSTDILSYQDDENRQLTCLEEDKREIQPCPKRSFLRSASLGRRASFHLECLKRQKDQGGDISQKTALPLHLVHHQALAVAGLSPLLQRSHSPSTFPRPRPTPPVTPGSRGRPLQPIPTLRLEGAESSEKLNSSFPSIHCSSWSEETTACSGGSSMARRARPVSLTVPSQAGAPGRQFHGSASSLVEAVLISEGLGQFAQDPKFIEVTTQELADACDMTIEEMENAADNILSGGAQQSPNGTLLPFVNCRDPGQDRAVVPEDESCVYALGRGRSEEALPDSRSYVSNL

Sequence of Voltage-dependent T-type calcium channel subunit alpha-1H (Homo sapiens) (O95180 whole entry): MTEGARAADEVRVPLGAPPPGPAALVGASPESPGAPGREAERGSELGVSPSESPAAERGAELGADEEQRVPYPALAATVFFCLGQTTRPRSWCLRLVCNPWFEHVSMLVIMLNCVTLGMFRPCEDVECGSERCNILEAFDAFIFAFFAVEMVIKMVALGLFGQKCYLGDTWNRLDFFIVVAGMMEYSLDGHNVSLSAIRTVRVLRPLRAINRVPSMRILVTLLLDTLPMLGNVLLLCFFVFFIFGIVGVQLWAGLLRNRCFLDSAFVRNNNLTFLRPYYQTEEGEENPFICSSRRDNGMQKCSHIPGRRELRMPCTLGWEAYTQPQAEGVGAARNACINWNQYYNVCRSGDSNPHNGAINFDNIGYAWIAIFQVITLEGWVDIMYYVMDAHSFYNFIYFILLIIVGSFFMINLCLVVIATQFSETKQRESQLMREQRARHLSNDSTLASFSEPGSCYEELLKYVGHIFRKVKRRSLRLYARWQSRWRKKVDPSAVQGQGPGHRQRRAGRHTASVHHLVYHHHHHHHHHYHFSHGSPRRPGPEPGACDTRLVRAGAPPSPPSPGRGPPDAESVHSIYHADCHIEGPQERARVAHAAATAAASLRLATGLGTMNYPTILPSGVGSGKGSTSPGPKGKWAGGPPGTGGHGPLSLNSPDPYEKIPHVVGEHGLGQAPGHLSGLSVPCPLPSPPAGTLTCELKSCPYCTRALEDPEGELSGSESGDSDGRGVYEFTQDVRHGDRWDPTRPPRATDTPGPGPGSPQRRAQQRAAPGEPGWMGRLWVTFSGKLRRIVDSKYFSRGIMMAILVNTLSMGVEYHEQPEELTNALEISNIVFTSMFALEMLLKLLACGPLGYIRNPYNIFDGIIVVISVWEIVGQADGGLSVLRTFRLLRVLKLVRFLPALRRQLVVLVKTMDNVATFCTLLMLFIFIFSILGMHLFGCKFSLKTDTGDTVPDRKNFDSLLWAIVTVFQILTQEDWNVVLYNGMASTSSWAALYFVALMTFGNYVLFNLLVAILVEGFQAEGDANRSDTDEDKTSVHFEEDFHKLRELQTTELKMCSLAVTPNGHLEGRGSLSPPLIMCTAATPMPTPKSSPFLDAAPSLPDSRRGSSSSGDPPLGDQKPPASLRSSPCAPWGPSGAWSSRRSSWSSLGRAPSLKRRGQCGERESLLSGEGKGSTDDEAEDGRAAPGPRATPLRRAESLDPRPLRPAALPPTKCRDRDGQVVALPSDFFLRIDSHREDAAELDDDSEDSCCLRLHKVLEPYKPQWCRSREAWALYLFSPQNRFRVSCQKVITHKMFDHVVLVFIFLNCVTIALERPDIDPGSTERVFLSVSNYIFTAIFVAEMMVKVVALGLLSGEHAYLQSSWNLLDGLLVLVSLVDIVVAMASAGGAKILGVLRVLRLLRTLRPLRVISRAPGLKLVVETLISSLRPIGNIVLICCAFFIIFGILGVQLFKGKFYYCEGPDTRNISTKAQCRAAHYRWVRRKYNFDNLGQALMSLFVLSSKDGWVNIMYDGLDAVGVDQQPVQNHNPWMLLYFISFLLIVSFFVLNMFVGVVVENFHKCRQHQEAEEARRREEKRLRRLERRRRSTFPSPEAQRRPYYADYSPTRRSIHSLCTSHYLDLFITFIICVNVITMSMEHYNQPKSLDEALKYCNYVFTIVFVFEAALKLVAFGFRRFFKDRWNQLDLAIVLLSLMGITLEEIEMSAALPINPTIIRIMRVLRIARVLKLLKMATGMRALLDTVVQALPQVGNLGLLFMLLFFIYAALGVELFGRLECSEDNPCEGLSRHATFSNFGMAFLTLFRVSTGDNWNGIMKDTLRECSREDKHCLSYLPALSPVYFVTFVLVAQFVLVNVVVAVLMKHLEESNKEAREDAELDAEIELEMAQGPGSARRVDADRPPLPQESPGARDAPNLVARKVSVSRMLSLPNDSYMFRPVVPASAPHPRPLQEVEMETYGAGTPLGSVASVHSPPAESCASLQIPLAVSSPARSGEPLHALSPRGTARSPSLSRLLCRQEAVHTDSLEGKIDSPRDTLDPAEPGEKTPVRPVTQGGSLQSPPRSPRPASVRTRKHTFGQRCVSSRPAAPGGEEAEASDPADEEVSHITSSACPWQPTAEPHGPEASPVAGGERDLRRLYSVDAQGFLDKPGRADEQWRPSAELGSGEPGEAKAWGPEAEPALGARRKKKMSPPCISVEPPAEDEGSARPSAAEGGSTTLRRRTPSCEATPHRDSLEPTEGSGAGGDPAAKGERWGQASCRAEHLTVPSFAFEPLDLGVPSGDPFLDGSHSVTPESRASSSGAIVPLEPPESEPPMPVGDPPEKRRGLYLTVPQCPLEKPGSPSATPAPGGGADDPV

Regarding `CCOC(=O)CCN1C(=O)NC(C)=C(C(=O)OCC)C1c1cccc([N+](=O)[O-])c1` (stereo not drawn), in data set [1], the inhibition result is “Active”. In addition, the inhibition at 10 µM in data set [2] was above 75%.

Regarding `CCOC(=O)C1=C(C)NC(=O)N(CCC(=O)OC)C1c1cccc([N+](=O)[O-])c1` (stereo not drawn), in data set [1], the inhibition entry was “inactive”. Also, the inhibition at 10 µM in data set [2] was below 50%.

For the molecule `CCOC(=O)C1=C(C)NC(=O)N(CCC(N)=O)C1c1cccc([N+](=O)[O-])c1` (stereo not drawn), in data set [1], the inhibition result is “inactive”. In addition, in data set [2], the inhibition at 10 µM was below 50%.

With `CCOC(=O)C1=C(C)NC(=O)N(CCC#N)C1c1cccc([N+](=O)[O-])c1` (stereo not drawn), the inhibition result in data set [1] was “inactive”. Besides, in data set [2], the inhibition at 10 µM is below 50%.

As for `CCOC(=O)C1=C(C)NC(=O)N(CCC(=O)NN)C1c1cccc([N+](=O)[O-])c1` (stereo not drawn), the inhibition result in data set [1] is “inactive”. Further, the inhibition at 10 µM in data set [2] was below 50%.

As for `CCOC(=O)C1=C(C)NC(=O)N(CCC(=O)OCc2cn(CC(=O)c3ccccc3)nn2)C1c1cccc([N+](=O)[O-])c1` (stereo not drawn), the inhibition result in data set [1] is “Active”. In data set [2], the inhibition at 10 µM is below 50%.

Take `CCOC(=O)C1=C(C)NC(=O)N(CCC(=O)OC(C)C)C1c1cccc([N+](=O)[O-])c1` (stereo not drawn): in data set [1], the inhibition result is “inactive”. Besides, in data set [2], the inhibition at 10 µM was below 50%.

On to `C#CCOC(=O)CCN1C(=O)NC(C)=C(C(=O)OCC)C1c1cccc([N+](=O)[O-])c1` (stereo not drawn), for which, in data set [1], the inhibition result is “Active”. In addition, the inhibition at 10 µM in data set [2] was determined as 50%.

In the case of `CCOC(=O)C1=C(C)NC(=O)N(CCC(=O)NCc2ccccc2)C1c1cccc([N+](=O)[O-])c1` (stereo not drawn), the inhibition result in data set [1] was “inactive”. Besides, in data set [2], the inhibition at 10 µM was below 50%.

As for `CCOC(=O)C1=C(C)NC(=O)N(CCC(=O)NCC(c2ccccc2)c2ccccc2)C1c1cccc([N+](=O)[O-])c1` (stereo not drawn), the inhibition result in data set [1] is “inactive”. The inhibition at 10 µM in data set [2] was below 50%.

Turning to `CCOC(=O)C1=C(C)NC(=O)N(CCC(=O)OCCOC)C1c1cccc([N+](=O)[O-])c1` (stereo not drawn), in data set [1], the inhibition result was “Active”. The inhibition at 10 µM in data set [2] was determined as 50%.

Turning to `CCOC(=O)C1=C(C)NC(=O)N(CCC(=O)O)C1c1cccc([N+](=O)[O-])c1` (stereo not drawn), the inhibition entry in data set [1] was “inactive”. The inhibition at 10 µM in data set [2] is below 50%.

Turning to `CCOC(=O)C1=C(C)NC(=O)N(CCC(=O)OCc2cn(Cc3ccccc3)nn2)C1c1cccc([N+](=O)[O-])c1` (stereo not drawn), the inhibition entry in data set [1] was “Active”. Also, the inhibition at 10 µM in data set [2] is below 50%.

In the case of `CCOC(=O)C1=C(C)NC(=O)N(CCC(=O)N(C)Cc2ccccc2)C1c1cccc([N+](=O)[O-])c1` (stereo not drawn), the inhibition result in data set [1] was “inactive”. The inhibition at 10 µM in data set [2] is below 50%.
